Patent US6878269B2, “Device for body fluid purification and system for body fluid purification” (Kaneka Corporation, priority 1996, dated 2005)

Columns and labels:
[1] = octanol-water system, found value; cited from earlier work
[2] = test system: β2-microglobulin or chemokines; assay: Adsorbing ability of immobilized compounds of various log P values; assay type: binding; details: compound immobilized on carrier
Excerpt: In discovering compounds effective for adsorbing substances related to malady in body fluid, in particular, for adsorbing β2-microglobulin or chemokines, compounds having various log P values have been examined in a state of being immobilized.

Compound | adsorbing ability for β2-microglobulin or chemokines [2] | further results
CCCCN [n-butylamine] | – | log P [1]: 0.97
CCCCCCCCCCCCCCCCCCN [octadecylamine] | – | adsorbing ability for β2-microglobulin or chemokines (guessed) ([2]; guessed and not tested): equivalent to or better than that of hexadecylamine
CCCCCCCCCCCCCCCCN [hexadecylamine] | further enhanced | –
CCCCCCCCN [n-octylamine] | enhanced to a great extent | –
